{
  "source": "patent US10144708B2",
  "about": "“Crystalline arylalkylamine compound and process for producing the same” (MITSUBISHI TANABE PHARMA CORPORATION, priority 2013, dated 2018)",
  "assay_type_in_all_cases": "physicochemical",
  "key": {"[1]": {"experiment": "Stability test: storage of Compound (A) and salts thereof, total increase in amounts of related substance", "settings": "for Total increase in amounts of related substance (%): storage 60° C., 1 Week; for Increase in the amounts of related substance on storage (in words): storage conditions of Table 3 (60° C., Natural or 75% RH, 1 Week)", "procedure": "Compound (A) and salts thereof were stored under the storage conditions described in Table 3, and the total increase in the amounts of related substance was measured."}, "[2]": {"experiment": "Stability test: storage of Compound (A) and salts thereof, total increase in amounts of related substance", "settings": "conditions of No. 16 of Table 3: 60° C., 75% RH, 1 Week"}, "[3]": {"experiment": "Determination of crystal form stable at room temperature (form A and form B suspended together in chloroform, powder X-ray diffractometry)", "settings": "equal amounts of form A and form B suspended in chloroform, stirred at room temperature overnight", "procedure": "Equal amounts of the form A crystal and the form B crystal of Compound (A) were added to the same container and were suspended in chloroform. The suspension was stirred at room temperature overnight. Thereafter, the suspended matter was filtered off and was analyzed by powder X-ray diffractometry to determine the type of the crystal form."}, "[4]": {"settings": "Natural humidity, hydrochloride"}},
  "data": [
    {"smiles": "C[C@@H](N[C@H]1CCN(c2ccc(CC(=O)O)cc2)C1)c1cccc2ccccc12", "note": "[Compound (A) Crystal (Form B), 4-(3S-(1R-(1-naphthyl)ethylamino)pyrrolidin-1-yl)phenylacetic acid (form B crystal)]", "values": [
      {"measurement": "Total increase in amounts of related substance (%)", "setting": "[1]; 75% RH", "value": 0.00, "unit": "%"},
      {"measurement": "Total increase in amounts of related substance (%)", "setting": "[1]; Natural humidity", "value": 0.00, "unit": "%"},
      {"measurement": "Increase in the amounts of related substance on storage (in words)", "setting": "[1]; listed as form B crystal of Compound (A)", "value": "did not show a marked increase"}
    ]},
    {"smiles": "C[C@@H](N[C@H]1CCN(c2ccc(CC(=O)O)cc2)C1)c1cccc2ccccc12.Cl", "note": "[Compound (A) 1.5HCl Amorphous, 4-(3S-(1R-(1-naphthyl)ethylamino)pyrrolidin-1-yl)phenylacetic acid-1.5 hydrochloride]", "values": [
      {"measurement": "Total increase in amounts of related substance (%)", "setting": "[1]; 75% RH, hydrochloride", "value": 3.11, "unit": "%"},
      {"measurement": "Total increase in amounts of related substance (%)", "setting": "[1]; [4]", "value": 8.21, "unit": "%"},
      {"measurement": "Increase in the amounts of related substance on storage (in words)", "setting": "[1]; listed as amorphous Compound (A).1.5 hydrochloride, hydrochloride", "value": "significantly increased"}
    ]},
    {"smiles": "C[C@@H](N[C@H]1CCN(c2ccc(CC(=O)O)cc2)C1)c1cccc2ccccc12.Cl", "note": "[Compound (A) 1.7HCl Amorphous, 4-(3S-(1R-(1-naphthyl)ethylamino)pyrrolidin-1-yl)phenylacetic acid.1.7 hydrochloride]", "values": [
      {"measurement": "Total increase in amounts of related substance (%)", "setting": "[1]; 75% RH, hydrochloride", "value": 3.06, "unit": "%"},
      {"measurement": "Total increase in amounts of related substance (%)", "setting": "[1]; [4]", "value": 8.33, "unit": "%"},
      {"measurement": "Increase in the amounts of related substance on storage (in words)", "setting": "[1]; listed as amorphous Compound (A).1.7 hydrochloride, hydrochloride", "value": "significantly increased"}
    ]},
    {"smiles": "C[C@@H](N[C@H]1CCN(c2ccc(CC(=O)O)cc2)C1)c1cccc2ccccc12", "note": "[Compound (A) Amorphous, 4-(3S-(1R-(1-naphthyl)ethylamino)pyrrolidin-1-yl)phenylacetic acid (amorphous)]", "values": [
      {"measurement": "Total increase in amounts of related substance (%)", "setting": "[1]; 75% RH", "value": 14.16, "unit": "%"},
      {"measurement": "Total increase in amounts of related substance (%)", "setting": "[1]; Natural humidity", "value": 3.32, "unit": "%"},
      {"measurement": "Increase in the amounts of related substance on storage (in words)", "setting": "[1]; listed as amorphous Compound (A)", "value": "significantly increased"}
    ]},
    {"smiles": "C[C@@H](N[C@H]1CCN(c2ccc(CC(=O)O)cc2)C1)c1cccc2ccccc12.Cl", "note": "[Compound (A) 1HCl Crystal, 4-(3S-(1R-(1-naphthyl)ethylamino)pyrrolidin-1-yl)phenylacetic acid-monohydrochloride]", "values": [
      {"measurement": "Total increase in amounts of related substance (%)", "setting": "[1]; 75% RH", "value": 1.02, "unit": "%"},
      {"measurement": "Total increase in amounts of related substance (%)", "setting": "[1]; Natural humidity", "value": 0.18, "unit": "%"},
      {"measurement": "Increase in the amounts of related substance on storage (in words)", "setting": "[1]; listed as Compound (A).monohydrochloride", "value": "increase in the amounts of related substance was observed"}
    ]},
    {"smiles": "C1CCOC1.C[C@@H](N[C@H]1CCN(c2ccc(CC(=O)O)cc2)C1)c1cccc2ccccc12.Cl", "note": "[Compound (A) 1HCl•1THF Crystal, 4-(3S-(1R-(1-naphthyl)ethylamino)pyrrolidin-1-yl)phenylacetic acid.monohydrochloride.monotetrahydrofuran solvate]", "values": [
      {"measurement": "Total increase in amounts of related substance (%)", "setting": "[1]; 75% RH", "value": 1.04, "unit": "%"},
      {"measurement": "Total increase in amounts of related substance (%)", "setting": "[1]; Natural humidity", "value": 0.75, "unit": "%"},
      {"measurement": "Increase in the amounts of related substance on storage (in words)", "setting": "[1]", "value": "increase in the amounts of related substance was observed"},
      {"measurement": "Change of solid form on storage", "setting": "[2]", "value": "conversion thereof into Compound (A).monohydrochloride (crystal)"}
    ]},
    {"smiles": "C[C@@H](N[C@H]1CCN(c2ccc(CC(=O)O)cc2)C1)c1cccc2ccccc12", "note": "[Compound (A) Crystal (Form A), 4-(3S-(1R-(1-naphthyl)ethylamino)pyrrolidin-1-yl)phenylacetic acid (form A crystal)]", "values": [
      {"measurement": "Total increase in amounts of related substance (%)", "setting": "[1]; 75% RH", "value": 0.01, "unit": "%"},
      {"measurement": "Total increase in amounts of related substance (%)", "setting": "[1]; Natural humidity", "value": 0.03, "unit": "%"},
      {"measurement": "Increase in the amounts of related substance on storage (in words)", "setting": "[1]; listed as form A crystal of Compound (A)", "value": "did not show a marked increase"},
      {"measurement": "Crystal form stable at room temperature", "setting": "[3]", "value": "more stable at room temperature"}
    ]},
    {"smiles": "Br.C[C@@H](N[C@H]1CCN(c2ccc(CC(=O)O)cc2)C1)c1cccc2ccccc12", "note": "[Compound (A) 1HBr Crystal, 4-(3S-(1R-(1-naphthyl)ethylamino)pyrrolidin-1-yl)phenylacetic acid.monohydrobromide]", "values": [
      {"measurement": "Total increase in amounts of related substance (%)", "setting": "[1]; 75% RH", "value": 0.13, "unit": "%"},
      {"measurement": "Total increase in amounts of related substance (%)", "setting": "[1]; Natural humidity", "value": 0.21, "unit": "%"},
      {"measurement": "Increase in the amounts of related substance on storage (in words)", "setting": "[1]", "value": "increase in the amounts of related substance was observed"}
    ]}
  ]
}
